# Measurements taken from US20230021483A1, “[…] […] METHOD AND CLASSIFICATION OF PHARMACEUTICAL COMPONENTS BY USING TRANSCRIPTOMES” (National Institutes of Biomedical Innovation, Health and …, priority 2016, published 2023).
# Assays:
# [1] = system: adjuvant-associated biological themes in LV, SP, LN
# Source text: A defined sets of genes were selected according to specified criteria (e.g., FC, PA-call, threshold values). Their functional enrichment values were then obtained from TargetMine (Chen, Y. A., Tripathi, L. P. & Mizuguchi, K. PloS one 6, e17844 (2011)) (http://targetmine.mizuguchilab.org/) using the API interface. The following resources were used throughout the analysis via TargetMine Interface (GO, GOSlim, Integrated Pathway, KEGG, Reactome, and the NCI pathway). The Holm-Bonferroni method was used for multiple testing corrections.
# Whole organ transcriptome data for each organ from each mouse were analyzed as follows to obtain biological themes for individual samples from each adjuvant-administered group of three mice. […] A set of Pj genes was first defined, where eij/ei(c)>2.0. Biological themes enriched within Pj were then identified using TargetMine (Chen, Y. A. et al., PloS one 6, e17844 (2011)) (http://targetmine.mizuguchilab.org/). Tj denote the resulting list of biological themes, with associated p-values from Fischer's exact test.
# Next, the biological themes called by all the individual samples in the group were scored as follows. Having obtained three lists (T1, T2 and T3) for a given experimental condition, a consensus list T of themes was created as T={(t1, p1), (t2, p2), . . . }, where ti is a biological theme that appears in all of T1, T2 and T3, and pi is the smallest of the associated p-values. Only the themes with the p-value of <0.05 were included in T.
# To summarize the biological themes in T further, a list of terms considered to be associated with adjuvant activity in general was separately prepared. AT={at1, at2, . . . }, where ati is a pre-selected adjuvant-associated term (e.g., “stress” or “cytokine”). Finally, an enrichment score S for an adjuvant-associated term ati was defined as: S(ati)=Σ−log(pj), where the name of tj in T includes a term ati as a substring and pj is the associated p-value.
# This scoring scheme summarizes the relative enrichment of pre-selected adjuvant-associated terms in genes responding to each adjuvant in each organ.
# liver (LV) = test: Whole organ transcriptome (GeneChip microarray) of liver 6 h after adjuvant administration: sDEGs, hierarchical clustering; type: in vivo, C57BL/6 mice; for cluster of strongly responding individual samples in LV (clustering exceptions): key: G1 (interferon signaling); G2 (metabolism of lipids and lipoproteins); G3 (response to stress); G4 (response to wounding); G5 (phosphate-containing compound metabolic process); G6 (phagosome)
substance,measurement,setting,value
"D35: A class CpG ODN (5′-GGTGCATCGATGCAGGGGGG-3′), TLR9 ligand (DNA GGTGCATCGATGCAGGGGGG; chemistry not given here)","tissue damage-associated annotations (cell death, wounding) in LNs","[1]; LN, i.d., fold change >2",did not induce cell death and wounding in LNs
same,GO annotation: Cytokine-cytokine receptor interaction (Term: cytokine),"[1]; LV, ID",0
same,GO annotation: Cytokine-cytokine receptor interaction|Endocytosis (Term: cytokine),"[1]; LV, ID",5.2
same,GO annotation: I-kappaB kinase/NF-kappaB signaling (Term: NF-kappa B signaling pathway),"[1]; LV, ID",0
same,GO annotation: NF-kappa B signaling pathway (Term: NF-kappa B signaling pathway),"[1]; LV, ID",5.27
same,GO annotation: TNF signaling pathway (Term: TNF signaling pathway),"[1]; LV, ID",12.1
same,GO annotation: activation of immune response (Term: immune response),"[1]; LV, ID",0
same,GO annotation: activation of innate immune response (Term: innate immune response),"[1]; LV, ID",0
same,GO annotation: acute inflammatory response (Term: inflammatory response),"[1]; LV, ID",0
same,GO annotation: adaptive immune response (Term: adaptive immune response),"[1]; LV, ID",0
same,GO annotation: apoptotic process (Term: apoptosis),"[1]; LV, ID",0
same,GO annotation: apoptotic signaling pathway (Term: apoptosis),"[1]; LV, ID",0
same,GO annotation: cell chemotaxis (Term: chemotaxis),"[1]; LV, ID",4.51
same,GO annotation: cell death (Term: cell death),"[1]; LV, ID",5.7
same,GO annotation: cell migration (Term: migration),"[1]; LV, ID",0
same,GO annotation: cellular response to cytokine stimulus (Term: cytokine),"[1]; LV, ID",3.28
same,GO annotation: cellular response to interferon-alpha (Term: IFN alpha),"[1]; LV, ID",0
same,GO annotation: cellular response to stress (Term: stress),"[1]; LV, ID",0
same,GO annotation: chemokine production (Term: chemokine),"[1]; LV, ID",0
same,GO annotation: chemokine-mediated signaling pathway (Term: chemokine),"[1]; LV, ID",0
same,GO annotation: chemotaxis (Term: chemotaxis),"[1]; LV, ID",0
same,GO annotation: cytokine biosynthetic process (Term: cytokine),"[1]; LV, ID",0
same,GO annotation: cytokine metabolic process (Term: cytokine),"[1]; LV, ID",0
same,GO annotation: cytokine production (Term: cytokine),"[1]; LV, ID",0
same,GO annotation: cytokine secretion (Term: cytokine),"[1]; LV, ID",0
same,GO annotation: cytokine-mediated signaling pathway (Term: cytokine),"[1]; LV, ID",0
same,GO annotation: death (Term: cell death),"[1]; LV, ID",0
same,GO annotation: defense response (Term: defense response),"[1]; LV, ID",5.76
same,GO annotation: defense response to Gram-positive bacterium (Term: defense response),"[1]; LV, ID",0
same,GO annotation: defense response to bacterium (Term: defense response),"[1]; LV, ID",0
same,GO annotation: defense response to other organism (Term: defense response),"[1]; LV, ID",0
same,GO annotation: defense response to protozoan (Term: defense response),"[1]; LV, ID",0
same,GO annotation: defense response to virus (Term: defense response),"[1]; LV, ID",0
same,GO annotation: granulocyte chemotaxis (Term: chemotaxis),"[1]; LV, ID",0
same,GO annotation: granulocyte migration (Term: migration),"[1]; LV, ID",0
same,GO annotation: immune response (Term: immune response),"[1]; LV, ID",0
same,GO annotation: immune response-activating signal transduction (Term: immune response),"[1]; LV, ID",0
same,GO annotation: immune response-regulating signaling pathway (Term: immune response),"[1]; LV, ID",0
same,GO annotation: inflammatory response (Term: inflammatory response),"[1]; LV, ID",0
same,GO annotation: innate immune response (Term: innate immune response),"[1]; LV, ID",0
same,GO annotation: innate immune response-activating signal transduction (Term: innate immune response),"[1]; LV, ID",0
same,GO annotation: interferon-alpha production (Term: IFN alpha),"[1]; LV, ID",0
same,GO annotation: intrinsic apoptotic signaling pathway (Term: apoptosis),"[1]; LV, ID",0
same,GO annotation: leukocyte chemotaxis (Term: chemotaxis),"[1]; LV, ID",0
same,GO annotation: leukocyte migration (Term: migration),"[1]; LV, ID",0
same,GO annotation: leukocyte migration involved in inflammatory response (Term: inflammatory response),"[1]; LV, ID",0
same,GO annotation: lymphocyte chemotaxis (Term: chemotaxis),"[1]; LV, ID",0
same,GO annotation: lymphocyte migration (Term: migration),"[1]; LV, ID",0
same,GO annotation: myeloid leukocyte migration (Term: migration),"[1]; LV, ID",0
same,GO annotation: negative regulation of apoptotic process (Term: apoptosis),"[1]; LV, ID",0
same,GO annotation: negative regulation of cell death (Term: cell death),"[1]; LV, ID",0
same,GO annotation: negative regulation of cytokine production (Term: cytokine),"[1]; LV, ID",0
same,GO annotation: negative regulation of defense response (Term: defense response),"[1]; LV, ID",0
same,GO annotation: negative regulation of immune response (Term: immune response),"[1]; LV, ID",0
same,GO annotation: negative regulation of innate immune response (Term: innate immune response),"[1]; LV, ID",0
same,GO annotation: negative regulation of programmed cell death (Term: cell death),"[1]; LV, ID",0
same,GO annotation: neutrophil chemotaxis (Term: chemotaxis),"[1]; LV, ID",0
same,GO annotation: neutrophil migration (Term: migration),"[1]; LV, ID",0
same,GO annotation: positive regulation of I-kappaB kinase/NF-kappaB signaling (Term: NF-kappa B signaling pathway),"[1]; LV, ID",0
same,GO annotation: positive regulation of adaptive immune response (Term: adaptive immune response),"[1]; LV, ID",0
same,GO annotation: positive regulation of apoptotic process (Term: apoptosis),"[1]; LV, ID",3.18
same,GO annotation: positive regulation of cell death (Term: cell death),"[1]; LV, ID",0
same,GO annotation: positive regulation of cell migration (Term: migration),"[1]; LV, ID",0
same,GO annotation: positive regulation of chemokine production (Term: chemokine),"[1]; LV, ID",0
same,GO annotation: positive regulation of chemotaxis (Term: chemotaxis),"[1]; LV, ID",0
same,GO annotation: positive regulation of cytokine biosynthetic process (Term: cytokine),"[1]; LV, ID",0
same,GO annotation: positive regulation of cytokine production (Term: cytokine),"[1]; LV, ID",0
same,GO annotation: positive regulation of defense response (Term: defense response),"[1]; LV, ID",0
same,GO annotation: positive regulation of immune response (Term: immune response),"[1]; LV, ID",0
same,GO annotation: positive regulation of inflammatory response (Term: inflammatory response),"[1]; LV, ID",0
same,GO annotation: positive regulation of innate immune response (Term: innate immune response),"[1]; LV, ID",0
same,GO annotation: positive regulation of interferon-alpha production (Term: IFN alpha),"[1]; LV, ID",0
same,GO annotation: positive regulation of leukocyte chemotaxis (Term: chemotaxis),"[1]; LV, ID",0
same,GO annotation: positive regulation of leukocyte migration (Term: migration),"[1]; LV, ID",0
same,GO annotation: positive regulation of programmed cell death (Term: cell death),"[1]; LV, ID",3.05
same,GO annotation: positive regulation of response to wounding (Term: wounding),"[1]; LV, ID",0
same,GO annotation: positive regulation of tumor necrosis factor superfamily cytokine (Term: cytokine),"[1]; LV, ID",0
same,GO annotation: production of molecular mediator of immune response (Term: immune response),"[1]; LV, ID",0
same,GO annotation: programmed cell death (Term: cell death),"[1]; LV, ID",0
same,GO annotation: regulation of I-kappaB kinase/NF-kappaB signaling (Term: NF-kappa B signaling pathway),"[1]; LV, ID",0
same,GO annotation: regulation of adaptive immune response (Term: adaptive immune response),"[1]; LV, ID",0
same,GO annotation: regulation of apoptotic process (Term: apoptosis),"[1]; LV, ID",0
same,GO annotation: regulation of apoptotic signaling pathway (Term: apoptosis),"[1]; LV, ID",0
same,GO annotation: regulation of cell death (Term: cell death),"[1]; LV, ID",0
same,GO annotation: regulation of cell migration (Term: migration),"[1]; LV, ID",0
same,GO annotation: regulation of chemokine production (Term: chemokine),"[1]; LV, ID",0
same,GO annotation: regulation of chemotaxis (Term: chemotaxis),"[1]; LV, ID",0
same,GO annotation: regulation of cytokine biosynthetic process (Term: cytokine),"[1]; LV, ID",0
same,GO annotation: regulation of cytokine production (Term: cytokine),"[1]; LV, ID",0
same,GO annotation: regulation of defense response (Term: defense response),"[1]; LV, ID",0
same,GO annotation: regulation of defense response to virus (Term: defense response),"[1]; LV, ID",0
same,GO annotation: regulation of defense response to virus by host (Term: defense response),"[1]; LV, ID",0
same,GO annotation: regulation of immune response (Term: immune response),"[1]; LV, ID",0
same,GO annotation: regulation of inflammatory response (Term: inflammatory response),"[1]; LV, ID",0
same,GO annotation: regulation of innate immune response (Term: innate immune response),"[1]; LV, ID",0
same,GO annotation: regulation of interferon-alpha production (Term: IFN alpha),"[1]; LV, ID",0
same,GO annotation: regulation of intrinsic apoptotic signaling pathway (Term: apoptosis),"[1]; LV, ID",0
same,GO annotation: regulation of leukocyte chemotaxis (Term: chemotaxis),"[1]; LV, ID",0
same,GO annotation: regulation of leukocyte migration (Term: migration),"[1]; LV, ID",0
same,GO annotation: regulation of programmed cell death (Term: cell death),"[1]; LV, ID",0
same,GO annotation: regulation of response to stress (Term: stress),"[1]; LV, ID",0
same,GO annotation: regulation of response to wounding (Term: wounding),"[1]; LV, ID",0
same,GO annotation: regulation of tumor necrosis factor superfamily cytokine production (Term: cytokine),"[1]; LV, ID",0
same,GO annotation: response to cytokine (Term: cytokine),"[1]; LV, ID",8.12
same,GO annotation: response to interferon-alpha (Term: IFN alpha),"[1]; LV, ID",0
same,GO annotation: response to stress (Term: stress),"[1]; LV, ID",9.13
same,GO annotation: response to wounding (Term: wounding),"[1]; LV, ID",0
same,GO annotation: taxis (Term: chemotaxis),"[1]; LV, ID",0
same,GO annotation: tumor necrosis factor superfamily cytokine production (Term: cytokine),"[1]; LV, ID",0
same,IFN beta: cellular response to interferon-beta,"[1]; LV, ID",0
same,IFN beta: interferon-beta production,"[1]; LV, ID",0
same,IFN beta: positive regulation of interferon-beta production,"[1]; LV, ID",0
same,IFN beta: regulation of interferon-beta production,"[1]; LV, ID",0
same,IFN beta: response to interferon-beta,"[1]; LV, ID",0
same,IFN gamma: cellular response to interferon-gamma,"[1]; LV, ID",0
same,IFN gamma: interferon-gamma production,"[1]; LV, ID",0
same,IFN gamma: regulation of interferon-gamma production,"[1]; LV, ID",0
same,IFN gamma: response to interferon-gamma,"[1]; LV, ID",0
same,interleukin-6: interleukin-6 production,"[1]; LV, ID",0
same,interleukin-6: positive regulation of interleukin-6 production,"[1]; LV, ID",0
same,interleukin-6: regulation of interleukin-6 production,"[1]; LV, ID",0
same,interleukin-12: interleukin-12 production,"[1]; LV, ID",0
same,interleukin-12: positive regulation of interleukin-12 production,"[1]; LV, ID",0
same,interleukin-12: regulation of interleukin-12 production,"[1]; LV, ID",0
same,GO annotation: adaptive immune response based on somatic recombination of immune receptors built from immunoglobulin superfamily domains (Term: adaptive immune response),"[1]; mouse, in vivo",0
same,GO annotation: regulation of adaptive immune response based on somatic recombination of immune receptors built from immunoglobulin superfamily domains (Term: adaptive immune response),"[1]; mouse, in vivo",0
same,"Number of gene probes with statistically significant changes (sDEGs), LV, Down","liver (LV); i.d. administration, liver, fold change <0.667, p<0.01, customized PA call=1, 6 h after adjuvant",36
same,"Number of gene probes with statistically significant changes (sDEGs), LV, Up","liver (LV); i.d. administration, liver, fold change >1.5, p<0.01, customized PA call=1, 6 h after adjuvant",15
same,cluster of strongly responding individual samples in LV (clustering exceptions),liver (LV); samples D35_ID_x2 and K3_ID_x3 only,G2
